Assay results taken from patent publication US11865195B2, “Evaluation of presence of and vulnerability to atrial fibrillation and other indications using matrix metalloproteinase-based imaging” (Lantheus Medical Imaging, Inc., priority 2011, dated 2024).
Like-named read-outs stand apart in the source and are kept apart here.

Assays:
activated MMP-2 = target: T1, activated MMP-2 (Homo sapiens, UniProt P08253); assay: In-vitro MMP inhibition assay (fluorogenic peptide substrate); format: biochemical; conditions: 1 h at 27° C., triplicate
T1 construct: purchased R&D Systems
T1 sequence (P08253 110-660): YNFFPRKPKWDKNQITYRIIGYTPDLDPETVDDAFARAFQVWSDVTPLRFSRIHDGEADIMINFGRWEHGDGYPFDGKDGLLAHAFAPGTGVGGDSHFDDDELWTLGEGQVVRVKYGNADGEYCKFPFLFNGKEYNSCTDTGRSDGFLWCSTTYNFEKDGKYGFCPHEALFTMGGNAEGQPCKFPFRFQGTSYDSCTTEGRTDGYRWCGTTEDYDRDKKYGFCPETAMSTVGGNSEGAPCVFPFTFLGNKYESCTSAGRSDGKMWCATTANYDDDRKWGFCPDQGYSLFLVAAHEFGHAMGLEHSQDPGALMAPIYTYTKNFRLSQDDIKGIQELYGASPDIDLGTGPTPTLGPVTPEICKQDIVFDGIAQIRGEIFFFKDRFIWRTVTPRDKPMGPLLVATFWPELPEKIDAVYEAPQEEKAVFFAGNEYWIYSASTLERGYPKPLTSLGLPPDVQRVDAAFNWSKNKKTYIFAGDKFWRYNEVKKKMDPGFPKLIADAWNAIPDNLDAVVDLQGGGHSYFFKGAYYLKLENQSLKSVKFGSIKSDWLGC
Procedure: (§1) Individual inhibitors were dissolved in TCN buffer (50 mM Tris-HCl, 10 mM CaCl2, 150 mM […], 0.05% Brij 35 at pH 7.5) at appropriate dilutions then added to the wells of a microtiter plate (10 μL/well) in triplicate. Each well of test agent (and appropriate control wells) was then treated with activated MMP-2 or 9 (10 μL of a 40 nM solution in 50 mM Hepes, 10 mM CaCl2), 1% Brij 35 at pH 7.5; R&D Systems) followed by 30 μL TCN buffer and 150 μL the fluorogenic peptide substrate (Mca-PLGL-Dpa-AR-NH2; R&D Systems). The resulting mixtures were incubated 1 h at 27° C. then analyzed using a FL600 fluorescent plate reader (excitation=310/20; emission=420/50; optics=bottom; sensitivity=225) and KC4 Software.

activated MMP-9 = target: T2, activated MMP-9 (Homo sapiens, UniProt P14780); assay: as above; format: biochemical; conditions: 1 h at 27° C., triplicate
T2 construct: purchased R&D Systems
T2 sequence (P14780 107-707 limits assumed): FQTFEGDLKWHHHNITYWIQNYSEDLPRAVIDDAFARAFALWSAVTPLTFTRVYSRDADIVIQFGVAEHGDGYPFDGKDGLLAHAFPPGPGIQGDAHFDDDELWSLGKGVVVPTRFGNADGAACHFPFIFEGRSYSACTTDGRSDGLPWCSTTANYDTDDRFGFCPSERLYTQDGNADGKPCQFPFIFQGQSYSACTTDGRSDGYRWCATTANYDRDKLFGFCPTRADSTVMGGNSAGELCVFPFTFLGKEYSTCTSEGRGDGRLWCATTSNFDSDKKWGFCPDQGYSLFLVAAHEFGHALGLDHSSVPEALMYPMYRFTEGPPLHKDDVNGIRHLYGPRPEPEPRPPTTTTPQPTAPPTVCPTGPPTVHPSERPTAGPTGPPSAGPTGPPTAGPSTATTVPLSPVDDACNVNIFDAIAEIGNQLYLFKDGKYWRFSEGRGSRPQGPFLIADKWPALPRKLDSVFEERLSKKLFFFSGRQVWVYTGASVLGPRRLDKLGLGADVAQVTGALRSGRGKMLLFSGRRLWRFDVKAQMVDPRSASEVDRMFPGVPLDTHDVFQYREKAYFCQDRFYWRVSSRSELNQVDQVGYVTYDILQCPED
Procedure: as §1

[1] = Tissue biodistribution in the Oncomouse; format: in vivo, mice; conditions: tail vein injection, 1 h post-injection, mean±SEM
Procedure: Oncomice®, obtained through an in-house breeding program, were anesthetized intramuscularly with 0.1 mL of ketamine/acepromazine (1.8 mL saline, 1.0 mL ketamine, and 0.2 mL acepromazine) prior to dosing and tissue sampling. Individual mice were then injected via the tail vein with an imaging agent of the present invention (0.5-2.0 mCi/kg in 0.1 mL). Mice were euthanized and biodistribution performed at 1 h post-injection. Selected tissues were removed, weighed, and counted on a gamma counter. Results are expressed as the percentage of injected dose per gram tissue (mean±SEM; Table 3).

MMPs = conditions: cited from earlier work; for selectivity for MMP-2 and MMP-9 over the other MMPs: derivatized alanine hydroxamates
activated MMPs = assay: MicroSPECT/CT imaging of aortic arch MMP activation in ApoE-/- mice under anti-lipid therapies; format: in vivo; conditions: 4 weeks of therapy; HFD group 4.99±0.27
Procedure: Methods: ApoE^−/− mice were fed a high fat diet (HFD) for 2 months to induce atherosclerosis. After two months, the mice were randomly assigned to one of 4 groups: HFD, HFD plus simvastatin (Sim), HFD plus fenofibrate (Fen) and high fat withdrawal (HFW). MicroSPECT/CT imaging using ^99mTc-RP805, a tracer with specificity for activated MMPs was performed after one week and 4 weeks.

CC(C)C[C@H]1C(=O)N[C@H](C(=O)NCCCCCCF)Cc2ccc(cc2)OCCC[C@@H]1C(=O)NO [Imaging Agent 2]
IC50 (activated MMP-2): 31.6 nM
IC50 (activated MMP-9): 20.2 nM
Imaging agent distribution, blood [1]: 1.07 ± 0.060 % ID/g
Imaging agent distribution, bone [1]: 2.02 ± 0.320 % ID/g
Imaging agent distribution, heart [1]: 0.95 ± 0.065 % ID/g
Imaging agent distribution, kidney [1]: 20.6 ± 3.25 % ID/g
Imaging agent distribution, liver [1]: 13.1 ± 2.17 % ID/g
Imaging agent distribution, lung [1]: 0.97 ± 0.121 % ID/g
Imaging agent distribution, muscle [1]: 0.50 ± 0.073 % ID/g
Imaging agent distribution, spleen [1]: 0.69 ± 0.085 % ID/g
Imaging agent distribution, tumor [1]: 0.95 ± 0.103 % ID/g
Imaging agent distribution, urine [1]: 71.8 % ID/g

O=C(NO)C1(CS(=O)(=O)c2ccc(Oc3ccc(Cl)cc3)cc2)CCOCC1 [1-13]
selectivity for MMP-2 and MMP-9 over MMP-1 (MMPs): selectivity

CCC(C)(C)C(=O)O[C@H]1C[C@@H](C)C=C2C=C[C@H](C)[C@H](CC[C@@H]3C[C@@H](O)CC(=O)O3)[C@H]21 [simvastatin]
99mTc-RP805 uptake in the aortic arch under HFD plus anti-lipid drug (activated MMPs): 3.17±0.52 counts per voxel per mCi injected dose

CCCCCCCCC[C@H](CC(=O)NO)C(=O)N[C@H](C(=O)NC)C(C)(C)C [1-5]
selectivity for MMP-2 over MMP-1 and MMP-3 (MMPs; long alkyl substituent at P1' position): imparts selectivity

CC(C)C[C@H]1C(=O)N[C@H](C(=O)NCc2ccc(OCCCF)cc2)Cc2ccc(cc2)OCCC[C@@H]1C(=O)NO [Imaging Agent 6]
IC50 (activated MMP-2): 2.74 nM
IC50 (activated MMP-9): 2.98 nM
Imaging agent distribution, blood [1]: 0.88 ± 0.061 % ID/g
Imaging agent distribution, bone [1]: 2.86 ± 0.124 % ID/g
Imaging agent distribution, heart [1]: 0.69 ± 0.073 % ID/g
Imaging agent distribution, kidney [1]: 6.66 ± 1.46 % ID/g
Imaging agent distribution, liver [1]: 11.3 ± 1.73 % ID/g
Imaging agent distribution, lung [1]: 1.69 ± 0.382 % ID/g
Imaging agent distribution, muscle [1]: 0.44 ± 0.049 % ID/g
Imaging agent distribution, spleen [1]: 0.81 ± 0.021 % ID/g
Imaging agent distribution, tumor [1]: 0.73 ± 0.026 % ID/g
Imaging agent distribution, urine [1]: 7.21 ± 6.71 % ID/g

CC(C)C[C@H]1C(=O)N[C@H](C(=O)NCc2ccc(F)cc2)Cc2ccc(cc2)OCCC[C@@H]1C(=O)NO [Imaging Agent 5]
IC50 (activated MMP-2): 0.58 nM
IC50 (activated MMP-9): 0.74 nM

CC(C)C[C@H]1C(=O)N[C@H](C(=O)NCCCF)Cc2ccc(cc2)OCCC[C@@H]1C(=O)NO [Imaging Agent 1]
IC50 (activated MMP-2): 5.19 nM
IC50 (activated MMP-9): 3.54 nM

CC(C)OC(=O)C(C)(C)Oc1ccc(C(=O)c2ccc(Cl)cc2)cc1 [fenofibrate]
99mTc-RP805 uptake in the aortic arch under HFD plus anti-lipid drug (activated MMPs): 2.23±0.28 counts per voxel per mCi injected dose

CNC(=O)[C@@H]1Cc2ccc(cc2)OCCC[C@H](C(=O)NO)[C@@H](CC(C)C)C(=O)N1 [1-6]
activity against MMPs (MMPs; macrocyclic succinyl hydroxamate): nanomolar activity

CC(C)C[C@H]1C(=O)N[C@H](C(=O)NCC(=O)NCCCCCF)Cc2ccc(cc2)OCCC[C@@H]1C(=O)NO [Imaging Agent 4]
IC50 (activated MMP-2): 15.4 nM
IC50 (activated MMP-9): 15.3 nM
Imaging agent distribution, blood [1]: 0.41 ± 0.099 % ID/g
Imaging agent distribution, bone [1]: 1.28 ± 0.200 % ID/g
Imaging agent distribution, heart [1]: 0.36 ± 0.064 % ID/g
Imaging agent distribution, kidney [1]: 14.8 ± 1.79 % ID/g
Imaging agent distribution, liver [1]: 23.6 ± 5.19 % ID/g
Imaging agent distribution, lung [1]: 0.45 ± 0.071 % ID/g
Imaging agent distribution, muscle [1]: 0.17 ± 0.043 % ID/g
Imaging agent distribution, spleen [1]: 0.34 ± 0.057 % ID/g
Imaging agent distribution, tumor [1]: 1.12 ± 0.204 % ID/g
Imaging agent distribution, urine [1]: 7.67 ± 5.00 % ID/g

O=C(NO)C1CCCN[C@@H]1C(=O)N1CCC(c2ccccc2)CC1 (stereo partly drawn) [1-8]
inhibition of MMPs (MMPs; succinyl hydroxamate with modified P2' and P3' positions): potent inhibition

C[C@H](C(=O)NO)N1CCNc2cc(OCc3ccccc3)ccc2S1(=O)=O [1-12]
selectivity for MMP-2 and MMP-9 over the other MMPs (MMPs): show selectivity

CCCCCCC[C@H](CC(=O)CS)C(=O)N[C@H](C(=O)NC)C(C)(C)C [1-15]
activity against MMPs (MMPs; succinyl thiol): good activity

COc1ccc(Oc2ccc([C@]3(C)CCN([C@H](C)C(=O)NO)C3=O)cc2)cc1OC [1-11]
selectivity for MMP-2 and MMP-9 over the other MMPs (MMPs): show selectivity

CC(C)C[C@H]1C(=O)N[C@H](C(=O)NCC(=O)NCCCF)Cc2ccc(cc2)OCCC[C@@H]1C(=O)NO [Imaging Agent 3]
IC50 (activated MMP-2): 4.61 nM
IC50 (activated MMP-9): 2.59 nM
